According to ChEMBL document CHEMBL1201862, “PubChem BioAssay data set” (2004):
Calls of active or inactive are those of the source. No stated cut-off is given here; in the data, actives have a measured IC50 and inactives only a lower limit.

Columns and labels:
Assay type in all cases: functional
[1] = molecular target: T1, Sentrin-specific protease 8 (Homo sapiens, UniProt Q96LD8); assay: SENP8 protease inhibitors, SAR follow-up, biochemical, luminescence, set 2 (AID 588601)
T1 sequence (Q96LD8 whole entry): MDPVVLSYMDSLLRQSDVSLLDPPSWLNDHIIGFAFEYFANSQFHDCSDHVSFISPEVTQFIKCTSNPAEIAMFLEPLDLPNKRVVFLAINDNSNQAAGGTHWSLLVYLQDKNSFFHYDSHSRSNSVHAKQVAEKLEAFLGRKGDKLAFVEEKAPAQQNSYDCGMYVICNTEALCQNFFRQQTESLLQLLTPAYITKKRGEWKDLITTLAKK

Caspase-3 [2] = molecular target: T2, Caspase-3 (Homo sapiens, UniProt P42574); assay: caspase-3 inhibitors as off-family protease, SAR follow-up, selectivity assay for SENP protease inhibitor project, biochemical, luminescence, set 2 (AID 588599)
T2 sequence (P42574 whole entry): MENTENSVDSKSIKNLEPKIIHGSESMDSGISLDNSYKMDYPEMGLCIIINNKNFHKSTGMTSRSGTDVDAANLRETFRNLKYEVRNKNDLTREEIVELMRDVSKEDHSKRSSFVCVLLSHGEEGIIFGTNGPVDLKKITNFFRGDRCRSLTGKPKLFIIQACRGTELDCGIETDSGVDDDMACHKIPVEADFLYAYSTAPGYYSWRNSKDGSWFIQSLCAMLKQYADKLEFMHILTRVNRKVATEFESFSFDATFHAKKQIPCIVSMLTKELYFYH

[3] = molecular target: T3, Sentrin-specific protease 6 (Homo sapiens, UniProt Q9GZR1); assay: SENP6 protease inhibitors, SAR follow-up, biochemical, luminescence, set 2 (AID 588598)
T3 sequence (Q9GZR1 whole entry): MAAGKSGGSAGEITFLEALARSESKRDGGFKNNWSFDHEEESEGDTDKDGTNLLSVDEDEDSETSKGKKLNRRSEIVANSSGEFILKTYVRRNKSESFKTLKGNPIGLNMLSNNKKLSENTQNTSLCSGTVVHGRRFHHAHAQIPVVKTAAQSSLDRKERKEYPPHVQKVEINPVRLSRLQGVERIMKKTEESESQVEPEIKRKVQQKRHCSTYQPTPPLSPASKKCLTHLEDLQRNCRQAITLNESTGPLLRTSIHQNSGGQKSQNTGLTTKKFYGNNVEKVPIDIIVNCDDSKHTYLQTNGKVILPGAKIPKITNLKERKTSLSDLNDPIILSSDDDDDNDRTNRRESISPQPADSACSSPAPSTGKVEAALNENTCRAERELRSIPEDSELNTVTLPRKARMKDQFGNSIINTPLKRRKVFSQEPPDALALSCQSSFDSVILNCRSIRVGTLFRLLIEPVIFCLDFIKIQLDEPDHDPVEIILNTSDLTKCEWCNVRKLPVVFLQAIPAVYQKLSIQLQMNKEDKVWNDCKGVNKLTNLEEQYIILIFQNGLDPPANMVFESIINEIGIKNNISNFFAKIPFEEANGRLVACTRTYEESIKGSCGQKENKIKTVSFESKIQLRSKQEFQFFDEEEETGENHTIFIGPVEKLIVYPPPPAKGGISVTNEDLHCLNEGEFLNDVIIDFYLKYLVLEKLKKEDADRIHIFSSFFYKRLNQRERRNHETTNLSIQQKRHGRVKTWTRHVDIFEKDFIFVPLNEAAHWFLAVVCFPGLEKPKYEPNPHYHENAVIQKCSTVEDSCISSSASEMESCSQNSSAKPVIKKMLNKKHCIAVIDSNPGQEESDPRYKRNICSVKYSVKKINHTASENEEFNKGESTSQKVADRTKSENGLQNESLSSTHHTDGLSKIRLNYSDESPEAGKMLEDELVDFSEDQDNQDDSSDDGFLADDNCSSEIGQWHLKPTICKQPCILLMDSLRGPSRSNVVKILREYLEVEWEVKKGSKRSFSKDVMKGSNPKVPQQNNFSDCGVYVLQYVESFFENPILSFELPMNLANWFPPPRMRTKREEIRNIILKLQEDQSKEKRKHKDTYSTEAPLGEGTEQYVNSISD

[4] = molecular target: T4, Sentrin-specific protease 7 (Homo sapiens, UniProt Q9BQF6); assay: SENP7 protease inhibitors, SAR follow-up, biochemical, luminescence (AID 504497)
T4 sequence (Q9BQF6 whole entry): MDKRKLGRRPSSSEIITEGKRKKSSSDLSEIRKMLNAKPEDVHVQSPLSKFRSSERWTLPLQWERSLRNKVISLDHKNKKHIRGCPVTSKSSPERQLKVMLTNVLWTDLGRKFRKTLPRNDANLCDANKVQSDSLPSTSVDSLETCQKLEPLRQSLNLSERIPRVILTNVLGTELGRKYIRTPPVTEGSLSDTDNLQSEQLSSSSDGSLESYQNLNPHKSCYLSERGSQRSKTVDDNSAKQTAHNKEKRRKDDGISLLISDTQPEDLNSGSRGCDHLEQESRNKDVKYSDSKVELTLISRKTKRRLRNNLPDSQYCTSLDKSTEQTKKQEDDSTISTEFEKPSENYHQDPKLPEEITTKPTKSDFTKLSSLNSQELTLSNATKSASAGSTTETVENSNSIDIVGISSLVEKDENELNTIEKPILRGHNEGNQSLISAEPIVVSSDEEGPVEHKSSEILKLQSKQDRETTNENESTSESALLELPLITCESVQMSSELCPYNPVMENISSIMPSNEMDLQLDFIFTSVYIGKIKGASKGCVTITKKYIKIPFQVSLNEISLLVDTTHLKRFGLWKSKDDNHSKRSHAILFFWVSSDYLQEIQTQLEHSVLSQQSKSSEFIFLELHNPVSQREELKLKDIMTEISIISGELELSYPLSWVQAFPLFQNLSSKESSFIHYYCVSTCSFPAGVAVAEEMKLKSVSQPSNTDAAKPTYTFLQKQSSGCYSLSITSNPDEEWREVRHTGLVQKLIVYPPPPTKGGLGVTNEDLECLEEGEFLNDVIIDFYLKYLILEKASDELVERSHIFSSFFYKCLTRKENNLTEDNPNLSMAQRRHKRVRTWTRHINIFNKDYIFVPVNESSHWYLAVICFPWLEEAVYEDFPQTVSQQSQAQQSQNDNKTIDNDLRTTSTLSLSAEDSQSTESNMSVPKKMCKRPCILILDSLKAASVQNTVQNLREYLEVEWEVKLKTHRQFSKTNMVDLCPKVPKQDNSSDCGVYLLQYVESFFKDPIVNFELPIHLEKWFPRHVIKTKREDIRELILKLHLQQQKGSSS

[5] = molecular target: T4, Sentrin-specific protease 7; assay: SENP7 protease inhibitors, SAR follow-up, biochemical, luminescence, set 2 (AID 588600)
[6] = molecular target: T3, Sentrin-specific protease 6; assay: SAR Analysis of small molecule inhibitors of Sentrin-specific protease 6 (SENP6) using a Luminescent assay. [Related pubchem assays (depositor defined):AID2582, AID2599]
[7] = molecular target: T1, Sentrin-specific protease 8; assay: SENP8 protease inhibitors, SAR follow-up, biochemical, luminescence (AID 504501)
Caspase-3 [8] = molecular target: T2, Caspase-3; assay: SAR Analysis of small molecule inhibitors of Sentrin-specific proteases (SENPs) using a Caspase-3 Selectivity assay. [Related pubchem assays (depositor defined):AID2540, AID2599, AID434973, AID489001]

Structure (SMILES): Oc1ccccc1-c1nc(/C=C/c2ccc(F)cc2)no1
- IC50 [1]: 1.64 µM (active)
- IC50 (Caspase-3 [2]): 2.55 µM (active)
- IC50 [3]: 1.53 µM (active)
- IC50 [4]: 1.6 µM (active)
- IC50 [5]: 1.87 µM (active)
- IC50 [6]: 20 µM (active)
- IC50 [7]: > 99 µM (inactive)
- IC50 (Caspase-3 [8]): 5.5 µM (active)
